Data from patent US8691851B2, “Lanthanide metal complexes useful in treating cancer” (National University of Singapore, priority 2009, dated 2014).

Key:
Type in all cases: cell-based
RhoB = RhoB induction after preincubation with PPAR-γ antagonist; settings: SHEP-1 cells, 10 uM GW9662 for 2 hours, then 10 uM C19H24N3O5S5Pr for 4 hours
Experimental: SHEP-1 cancer cells were preincubated with 10 uM GW9662, a pharmacological PPAR-γ antagonist that was able to abrogate the induction of RhoB protein by C19H24N3O5S5Pr, or vehicle control for 2 hours before being exposed to 10 uM of C19H24N3O5S5Pr for 4 hours.

PPARγ = target: T1, PPARγ (Homo sapiens, UniProt P37231); set-up: endogenous in cells; host or cells: SHSY5Y, SHEP1 / SHEP-1 (neuroblastoma); settings: SHSY5Y and SHEP1 cells in 10% serum, 0 to 10 μM, 18 hours
T1 sequence (P37231 1-505): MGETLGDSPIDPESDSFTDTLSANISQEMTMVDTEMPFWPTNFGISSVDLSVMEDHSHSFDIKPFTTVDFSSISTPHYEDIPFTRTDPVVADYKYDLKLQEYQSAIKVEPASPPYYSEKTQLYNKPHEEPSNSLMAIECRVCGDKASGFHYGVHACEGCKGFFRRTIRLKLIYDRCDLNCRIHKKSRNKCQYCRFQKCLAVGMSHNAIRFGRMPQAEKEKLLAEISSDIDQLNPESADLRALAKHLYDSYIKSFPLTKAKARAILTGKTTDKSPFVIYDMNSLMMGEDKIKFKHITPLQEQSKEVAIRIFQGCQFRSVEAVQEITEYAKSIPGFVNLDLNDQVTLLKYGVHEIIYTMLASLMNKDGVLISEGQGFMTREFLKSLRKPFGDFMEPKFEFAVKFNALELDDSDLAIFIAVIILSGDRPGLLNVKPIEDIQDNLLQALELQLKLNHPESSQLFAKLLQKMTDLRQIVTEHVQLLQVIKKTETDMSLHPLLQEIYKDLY
Experimental: To determine if C19H24N3O5S5Pr activates PPARγ, SHSY5Y and SHEP1 neuroblastoma cells were transiently co-transfected with a 3×PPRE luciferase plasmid and renilla plasmid for transfection efficiency. Forty eight hours following transfection, the cells were exposed to increased concentrations (0 to 10 μM) of 15d-PGJ2 and C19H24N3O5S5Pr for 18 hours. The fold increase in luciferase activity correlates with the PPARγ activity of the cell. PPARγ activity is determined by calculating the RLU/renilla/μg total protein.
To assess if C19H24N3O5S5Pr activation of PPARγ is dependent on expression of PPARγ neuroblastoma cells, neuroblastoma cells SHEP1 and SHSY5Y were transiently co-transfected with a 3×PPRE luciferase plasmid and renilla plasmid for transfection efficiency. Forty eight hours following transfection, cells were exposed to increased concentrations (0 to 20 μM) of C19H24N3O5S5Pr for 18 hours. PPARγ activity was calculated as luciferase RLU/renilla/μg total protein.

LC3 II = LC3 II formation by Western blot; settings: SHSY5Y cells, 5 or 10 mM 3MA for 2 hours, then 10 uM C19H24N3O5S5Pr for 7 hours
[1] = tested on: SHEP-1 and MDA-MB-231 cancer cells; assay: Morphological changes of cancer cells; settings: 10 mM 3MA, then 5 μM (SHEP-1) or 10 μM (MDA-MB-231) C19H24N3O5S5Pr

O=C(Nc1ccccc1)c1cc([N+](=O)[O-])ccc1Cl [GW9662]
RhoB expression induced by C19H24N3O5S5Pr after antagonist preincubation (RhoB): RhoB was not expressed

CCCCC/C=C/C=C1/C(=O)C=CC1C/C=C\CCCC(=O)O (stereo not shown) [15dPGJ2, 15-deoxy-Delta-12,14, prostaglandin, reference compound]
PPARγ activation (luciferase RLU/renilla/μg total protein) (PPARγ): did not display any PPARγ activation

Cn1cnc(N)c2ncnc1-2 [3MA, 3-methyl adenine, reference compound]
LC3 II levels induced by C19H24N3O5S5Pr after 3MA preincubation (LC3 II): LC3 II levels were reduced | cell morphology after 3MA preincubation followed by C19H24N3O5S5Pr [1]: did not demonstrate this death-like morphology
